Assay results taken from US20260216250A1, “Compositions and Methods for Treating a Neurologic Disease Using Dopaminergic Neurons with Enhanced Anti-inflammatory Activity” (Kenai Therapeutics Inc., priority 2023, published 2026).

How the values were obtained:
[1] = target: Ago (Homo sapiens, UniProt Q9UKV8); conditions: cited from earlier work
[2] = test system: rodent GSK3β homologs; conditions: cited from earlier work
[3] = test system: iPS cells; experiment: Differentiation of iPS cells into FOXA2+/LMX1+ cells or dopamine neurons; type: cell-based, human; conditions: increased concentrations, e.g. 2 μM as compared to 0.2 μM
Text: Disclosed is an in vitro method for preparing a cell composition comprising modified human cells that express both forkhead box protein A2 (FOXA2) and LIM homeobox transcription factor 1 (LMX1) (FOXA2^+/LMX1^+ cells) comprising culturing modified human pluripotent cells in the presence of the following signaling modulators: (a) a single inhibitor of Small Mothers Against Decapentaplegic (SMAD) signaling, (b) at least one activator of Sonic hedgehog (SHH) signaling, and (c) at least one activator of wingless (Wnt) signaling; and culturing said cells in the presence of said modulators for a period of time sufficient to provide a cell composition comprising said FOXA2^+/LMX1^+ cells. In some preferred embodiments, the LMX1 is LIM homeobox transcription factor 1 alpha (LMX1A). In some embodiments, the inhibitor of SMAD signaling is a BMP inhibitor such as, […]., at a concentration of from about 0.2 μM to about 4 μM, more preferably greater than 0.2 μM to about 4 μM, about 1 μM, 2 μM, 3 μM, 4 μM, or any range derivable therein), dorsomorphin, DMH-1, or noggin. […] In some embodiments, the BMP inhibitor is LDN-193189. The SMAD signaling inhibitor may be a TGFβ inhibitor (a TGFβ signaling pathway inhibitor) such as, for example, SB431542 (e.g., SB431542 present at a concentration of about 5-100, 20-60, 30-50 μM, or about 40 μM). […]

Ago, sequence (Q9UKV8 whole entry): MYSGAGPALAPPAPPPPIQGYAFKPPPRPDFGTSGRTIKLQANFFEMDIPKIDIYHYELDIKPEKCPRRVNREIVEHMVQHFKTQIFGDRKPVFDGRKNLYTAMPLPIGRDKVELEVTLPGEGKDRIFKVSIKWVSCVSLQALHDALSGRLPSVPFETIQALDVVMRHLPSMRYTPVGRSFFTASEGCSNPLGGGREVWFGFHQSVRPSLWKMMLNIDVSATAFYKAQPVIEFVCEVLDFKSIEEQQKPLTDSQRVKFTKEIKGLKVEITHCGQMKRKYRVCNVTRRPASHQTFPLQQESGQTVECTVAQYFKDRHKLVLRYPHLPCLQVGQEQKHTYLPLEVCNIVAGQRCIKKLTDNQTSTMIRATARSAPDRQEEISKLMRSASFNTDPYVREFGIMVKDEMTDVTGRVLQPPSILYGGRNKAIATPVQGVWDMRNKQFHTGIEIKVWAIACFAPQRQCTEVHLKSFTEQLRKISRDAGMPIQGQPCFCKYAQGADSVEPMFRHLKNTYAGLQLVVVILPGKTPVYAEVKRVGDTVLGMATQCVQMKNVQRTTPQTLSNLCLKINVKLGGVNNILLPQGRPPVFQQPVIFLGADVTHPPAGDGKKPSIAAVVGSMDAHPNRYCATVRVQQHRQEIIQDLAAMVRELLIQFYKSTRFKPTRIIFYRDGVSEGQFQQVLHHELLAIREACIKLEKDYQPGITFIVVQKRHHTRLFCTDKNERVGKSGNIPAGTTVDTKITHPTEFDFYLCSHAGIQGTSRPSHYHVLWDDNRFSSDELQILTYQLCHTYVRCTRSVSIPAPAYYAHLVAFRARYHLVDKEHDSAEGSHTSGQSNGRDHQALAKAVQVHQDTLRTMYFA

UUAAUGCUAAUCGUGAUAGGGGUU [miR-155-5p]
Ago binding affinity of 5′ terminal UMP relative to the CMP nucleotide on the 5′ terminus of the miR-155-3p strand [1]: approximately 20 times

Cc1c[nH]c(-c2cnc(NCCNc3ccc(C#N)cn3)nc2-c2ccc(Cl)cc2Cl)n1 [CHIR99021, 6-(2-(4-(2,4-dichlorophenyl)-5-(4-methyl-1H-imidazol-2-yl)pyrimidin-2-ylamino)ethylamino) nicotinonitrile]
IC50 values against rodent GSK3β homologs [2]: nanomolar

c1ccc2c(-c3cnn4cc(-c5ccc(N6CCNCC6)cc5)cnc34)ccnc2c1 [LDN-193189, 4-(6-(4-(piperazin-1-yl)phenyl)pyrazolo[1,5-a]pyrimidin-3-yl) quinoline]
differentiation of iPS cells into FOXA2+/LMX1+ cells or dopamine neurons [3]: improved differentiation
